# Patent publication US20090068125A1, “TREATMENT FOR MUCOSITIS” (HEPTAGEN LTD, priority 2005, published 2009)
# Experiments:
# [1] = tested on: human epidermal keratinocytes (HEK); assay: Inhibition of human epidermal keratinocyte proliferation (AlamarBlue reduction); type: cell-based; conditions: two typical experiments (FIG. 1), 0.1 to 100 microM adenosine, 2 days incubation, AlamarBlue fluorescence
# Description: Cryopreserved human epidermal keratinocytes (HEK) isolated from skin were obtained from TCS Cellworks, Botolph Claydon, Buckingham, MK18 2LR, UK. Cells were maintained in EpiLife, a defined basal medium designed for human keratinocytes supplemented with selected hormones and growth factors (TCS Cellworks). […] Proliferating cultures were trypsinised, harvested, treated with a trypsin inhibitor and resuspended in growth medium. The viable cells were counted then replated into 24 or 96 well cell culture plates at a density of approximately 2,500 cells/cm2. Cells were incubated overnight at 37° C. at 5% CO2 to allow recovery, the spent medium aspirated from the wells and replaced with fresh growth medium in the presence or absence of adenosine. Adenosine was obtained from Sigma-Aldrich and made up as a 10 mM stock solution in DMSO. Serial dilutions were made in the growth medium and added to the cells to give final concentrations ranging from 0.1 to 100 microM, and the cells returned to the incubator for 2 days. AlamarBlue 2% v/v was added to the wells and reduction measured fluorometrically using a Molecular Dynamics BioLumin 9600 microtitre plate reader using excitation wavelength at 530 nm and […] wavelength at 590 nm. Control experiments in which compounds were not added were carried out to examine the normal time-scale of proliferation. […]
# [2] = cited from earlier work
compound,measurement,setting,value
Nc1ncnc2c1ncn2[C@@H]1O[C@H](CO)[C@@H](O)[C@H]1O [Adenosine],EC50,"[1]; Homo sapiens, Keratinocyte, 48 h",1700 nM
same,EC50,[1],1100 nM
same,half-life in the circulation,[2],< 10 s
